This series can be described thus: solvent given as SMILES.

As to `CCC1=C(C)C2=Cc3c4ccccc4c4n3[B-](c3ccc5ccc6cccc7ccc3c5c67)(Oc3ccccc3-4)[N+]2=C1C` (centres undefined), the absorption maximum is, setting by setting: (in CC#N) 622 nm; (in CCCCCC) 627 nm; (in Cc1ccccc1) 630 nm; (in ClCCl) 628 nm.

For the setting “in CCO”, `CN(C)c1ccc(-c2ccc(C#N)s2)s1` showed an absorption maximum of 413 nm.

For `CN(C)c1ccc2cc3ccc(N(C)C)cc3nc2c1`, the absorption maximum (in O) is given as 500 nm.

As for `CCC1=C(CC)c2cccc3c2c(cc2nc4ccccc4nc23)O1`, the absorption maximum (in ClCCl) amounted to 501 nm.

`c1ccc(-c2c3c(cc4c2-c2ccccc2C4)-c2ccccc2C3)cc1`: the absorption maximum (in C1CCCCC1) stood at 331 nm.

Take `CC(=O)O[B-]1(OC(C)=O)OC(/C=C/C=C/c2ccccc2)=CC(/C=C/C=C/c2ccccc2)=[O+]1`: the absorption maximum reads like this: (in C1CCOC1) 468 nm; (in CC#N) 472 nm; (in CC(C)=O) 468 nm; (in CS(C)=O) 478 nm; (in Cc1ccccc1) 470 nm; (in ClC(Cl)Cl) 474 nm. Further, the absorption maximum (in ClCCl) is 474 nm.

`Cc1cc(C2=C(c3cc(C)sc3C)S(=O)(=O)c3ccccc32)c(C)s1`: where the note is “in C1CCOC1”, the absorption maximum is on record as 349 nm.

For the setting “in ClCCl”, `CC(C)[Si](C#Cc1c2cc3ccccc3cc2c(C#C[Si](C(C)C)(C(C)C)C(C)C)c2nc3c4ccccc4c(=O)c4ccccc4c3nc12)(C(C)C)C(C)C` had an absorption maximum of 615 nm.

Regarding `CCCCCCCCCCOc1cc2cc(C#Cc3ccc(/C=C(\C#N)C(=O)O)cc3)c(=O)oc2cc1OCCCCCCCCCC`, the absorption maximum (in CC#N) is 398 nm.

With `O=C1NC(c2ccccc2)=N/C1=C\c1ccccc1`, the absorption maximum (in C1COCCO1) turned out to be 384 nm.

On to `CN1C(=CC2=C([O-])C(=Cc3oc(-c4ccc(-c5ccccc5)cc4)c[n+]3C)C2=O)C(C)(C)c2ccccc21`, for which, under “in ClC(Cl)Cl”, the absorption maximum came out at 606 nm.

For the molecule `Cc1ccc(C2=[N+]3C(=Cc4c(C)cc(C)n4[B-]3(F)F)c3ccccc32)[nH]1`, the absorption maximum runs as follows: (in C1CCOC1) 607 nm; (in CC#N) 600 nm; (in CCCCCC) 607 nm; (in CO) 602 nm; (in Cc1ccccc1) 612 nm; (in ClCCl) 608 nm.

`c1ccc(B2Nc3cc4c(cc3-c3occc32)NB(c2ccccc2)c2ccoc2-4)cc1` displayed an absorption maximum (in ClCCl) of 388 nm.

As for `COc1ccc(-c2ccccc2)cc1`, for the setting “in C1CCCCC1”, the absorption maximum worked out at 265.82 nm.

Molecule `CC1(C)CC(/C=C/c2ccc(N3CCOCCOCCOCCOCC3)cc2)=CC(=C(C#N)C#N)C1` had an absorption maximum (in C1CCOC1) of 500 nm; an absorption maximum (in CC#N) of 493 nm; an absorption maximum (in CCO) of 504 nm; an absorption maximum (in CCOC(C)=O) of 496 nm; an absorption maximum (in ClCCl) of 502 nm; an absorption maximum (in c1ccccc1) of 500 nm.

`C[C@]12C(=O)NC(=O)N([C@H]3CC(O)[C@@H](CO)O3)[C@H]1[C@H]1Oc3cc4oc(=O)ccc4cc3[C@H]12` (some centres undefined): the absorption maximum is 327 nm (in CC(C)O); 327 nm (in CCO); 325 nm (in CCOCC); 328 nm (in CO); 329 nm (in O).

For `COc1ccccc1`, the absorption maximum (in C1CCCCC1) amounted to 267.24 nm.

Under “in C1CCCCC1”, `Cc1ccccc1C` registered an absorption maximum of 258.26 nm.

With `COc1cc2cc(/C=C/c3ccc(/C=C/c4ccc(/C=C(\C#N)C(=O)O)cc4)cc3)c(=O)oc2cc1OC`, under “in CC#N”, the absorption maximum turned out to be 415 nm.

Where the note is “in C1CCOC1”, `CCCCCCc1cc2c(s1)-c1sc(CCCCCC)cc1P(c1ccccc1)(c1ccccc1)=[O+][B-]2(c1c(C)cc(C)cc1C)c1c(C)cc(C)cc1C` yielded an absorption maximum of 431 nm.

Regarding `c1ccc(-c2nc(-c3c[nH]c4ccccc34)n3ccccc23)cc1`, the absorption maximum by setting is: (in C1CCCCC1) 382 nm; (in CC#N) 381 nm; (in CO) 372 nm; (in ClCCl) 380 nm; (in O) 390 nm.

Take `CC(C)(C)c1ccc(-c2c(-c3cccc(N(c4ccccc4)c4ccccc4)c3)c(C#N)c(-c3cccc(N(c4ccccc4)c4ccccc4)c3)c(-c3ccc(C(C)(C)C)cc3)c2-c2ccc(C(C)(C)C)cc2)cc1`: under “in C1CCOC1”, the absorption maximum is reported as 297 nm.

Regarding `COc1cc(OC)cc(C2=CC(c3ccccc3)=C(c3ccccc3)C2)c1`, where the note is “in ClCCl”, the absorption maximum was 355 nm.

Molecule `COc1ccc2cc(-c3ccc(S(C)(=O)=O)cc3)oc(=O)c2c1` registered an absorption maximum (in CCO) of 331 nm; an absorption maximum (in CCOC(C)=O) of 331 nm; an absorption maximum (in CN(C)C=O) of 333 nm; an absorption maximum (in CO) of 330 nm; an absorption maximum (in ClC(Cl)Cl) of 334 nm.

On to `COCCOCCOCCOCC(COCCOCCOCCOC)Oc1cc(/C=C/c2ccc(/C=C(\C#N)c3ccccc3)cc2)c(OC(COCCOCCOCCOC)COCCOCCOCCOC)cc1/C=C/c1ccc(/C=C(\C#N)c2ccccc2)cc1`, for which the absorption maximum (in ClCCl) turned out to be 433 nm.

On to `FC(F)(F)c1ccccc1B1c2ccccc2N(c2ccccc2)c2ccccc21`, for which, under “in ClCCl”, the absorption maximum is 389 nm.

Take `COc1ccc(N(c2ccc(OC)cc2)c2sc(-c3ccc(Cl)cc3)nc2-c2ccccc2)cc1`: the absorption maximum (in ClC(Cl)Cl) is 393 nm.

For the molecule `COc1ccc2cc(C3=[N+]4C(=Nc5c(-c6ccc7ccccc7c6)cc(-c6ccc7cc(OC)ccc7c6)n5[B-]4(F)F)C(c4ccc5ccccc5c4)=C3)ccc2c1`, under “in ClCCl”, the absorption maximum turned out to be 718 nm.

`CCCCCCN1C(=O)c2cccc3cc(/N=C\c4ccc5c(c4)c4ccccc4n5CC)cc(c23)C1=O` gave an absorption maximum (in ClC(Cl)Cl) of 340 nm.

Where the note is “in C1CCOC1”, `O=P1(c2ccccc2)C(c2cccs2)=Cc2ccccc21` (centres undefined) had an absorption maximum of 368 nm.

For `COc1ccc(/C=C/c2ccccc2)cc1`, the absorption maximum (in CC#N) is 317 nm.

On to `C#CCNC1=C2C(C)=CC(C)=[N+]2[B-](F)(F)n2c(C)cc(C)c21`, for which the absorption maximum reads like this: (in C1CCCCC1) 468.5 nm; (in CC(C)=O) 453 nm; (in CCOC(C)=O) 457 nm; (in CO) 453 nm; (in OCC(F)(F)F) 450.5 nm.

Take `CCOC(=O)c1sc2nc(C)c(C)c(C#N)c2c1N`: the absorption maximum (in c1ccccc1) was 406 nm.

As to `C[Si](C)(C)C#Cc1cc(C#C[Si](C)(C)C)c2ccc3c(C(=O)c4ccccc4)cc(C#C[Si](C)(C)C)c4ccc1c2c43`, for the setting “in ClCCl”, the absorption maximum was 426 nm.

The molecule `CC1=CC(C)=[N+]2C1=C(c1ccccc1)c1c(C)c(-c3cccs3)c(C)n1[B-]2(F)F` displayed an absorption maximum (in CO) of 507 nm, an absorption maximum (in Cc1ccccc1) of 513 nm and an absorption maximum (in ClCCl) of 511 nm.

On to `COc1cc(/C=C/c2nc3ccccc3o2)c(OC)cc1/C=C/c1nc(C)nc(/C=C/c2cc(OC)c(/C=C/c3nc4ccccc4o3)cc2OC)n1`, for which the absorption maximum is, setting by setting: (in C1CCOC1) 431 nm; (in CC#N) 431 nm; (in ClC(Cl)Cl) 436 nm; (in ClCCl) 431 nm.

Turning to `CCCC1(CCC)c2ccccc2-c2ccc(-c3ccc(OC)cc3)cc21`, the absorption maximum (in C1CCCCC1) stood at 315 nm.

Consider `C=Cc1cc2cc3c(cc2oc1=O)OCO3`, for which the absorption maximum (in CC#N) stood at 363 nm.

Molecule `COc1ccc(-c2c3cc4ccccc4cc3c(-c3ccc(OC)cc3)c3cc4sc(C)cc4cc23)cc1` yielded an absorption maximum (in ClCCl) of 550 nm.

The values are drawn from the Deep4Chem optical property database.
